This note sets out measurements from patent publication US12521393B2, “Cytotoxicity targeting chimeras for CCR2-expressing cells” (GLAXOSMITHKLINE INTELLECTUAL PROPERTY DEVELOPMENT LIMITED, priority 2021, dated 2026).

Counter-ions that a name gives are not always drawn.

For assay [1], the target named is human alpha1 nicotinic acetylcholine (nACh) receptor (Homo sapiens, UniProt P02708). As to the kind of experiment: Nicotinic acetylcholine receptor antagonism assay, IONFlux automated patch clamp (Example 203). The format is cell-based. Conditions: for IC50: antagonism of ACh-stimulated human alpha1 nAChR current, patch clamp; for Emax at 100 µM: maximum percentage antagonism at maximum concentration tested 100 μM. The method, then: Cells expressing human alpha1 nicotinic acetylcholine (nACh) receptor (nAChR) were washed and dissociated using Trypsin containing buffer. Cells were then washed and seeded at a density of 3-5 million cells/mL and allowed to grow for 3 days. Then, 60-80 μL of cells were added to plates and incubated with dose response of an ARM compound of Formula (I) with a top concentration of either 10 μM or 100 μM. The receptor was then stimulated via addition of acetylcholine (ACh) and activation of the receptor was monitored via the IONFlux automated patch clamp system. IonFlux Data Analyzer software was utilized to perform leak subtraction and measure (min) peak current amplitude.
human alpha1 nicotinic acetylcholine (nACh) receptor, sequence (P02708 21-457): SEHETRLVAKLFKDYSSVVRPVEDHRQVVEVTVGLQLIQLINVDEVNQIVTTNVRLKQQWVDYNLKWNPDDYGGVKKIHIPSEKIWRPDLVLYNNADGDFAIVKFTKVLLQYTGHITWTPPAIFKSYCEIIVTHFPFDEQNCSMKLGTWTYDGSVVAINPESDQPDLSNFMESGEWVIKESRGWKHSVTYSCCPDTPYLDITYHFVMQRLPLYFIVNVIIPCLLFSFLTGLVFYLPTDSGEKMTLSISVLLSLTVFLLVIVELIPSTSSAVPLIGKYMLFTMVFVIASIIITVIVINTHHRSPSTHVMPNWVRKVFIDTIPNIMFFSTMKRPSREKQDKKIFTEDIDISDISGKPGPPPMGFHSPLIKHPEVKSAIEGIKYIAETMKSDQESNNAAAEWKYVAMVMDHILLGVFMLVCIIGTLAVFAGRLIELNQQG
human alpha1 nicotinic acetylcholine (nACh) receptor, sequence (P11230 24-501 partner): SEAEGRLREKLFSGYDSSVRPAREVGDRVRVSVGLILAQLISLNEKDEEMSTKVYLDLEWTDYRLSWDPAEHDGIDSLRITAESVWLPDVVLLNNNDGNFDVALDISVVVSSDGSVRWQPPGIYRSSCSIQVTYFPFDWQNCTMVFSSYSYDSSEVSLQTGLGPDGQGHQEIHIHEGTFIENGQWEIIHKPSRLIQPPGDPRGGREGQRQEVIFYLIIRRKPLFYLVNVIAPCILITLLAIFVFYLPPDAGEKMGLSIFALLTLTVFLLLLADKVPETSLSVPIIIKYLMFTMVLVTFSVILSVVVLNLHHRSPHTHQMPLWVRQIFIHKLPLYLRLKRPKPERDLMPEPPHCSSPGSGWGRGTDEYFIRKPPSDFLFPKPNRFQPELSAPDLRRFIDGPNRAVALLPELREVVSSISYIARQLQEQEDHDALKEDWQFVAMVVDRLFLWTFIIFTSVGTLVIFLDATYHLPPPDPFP
human alpha1 nicotinic acetylcholine (nACh) receptor, sequence (Q07001 22-517 partner): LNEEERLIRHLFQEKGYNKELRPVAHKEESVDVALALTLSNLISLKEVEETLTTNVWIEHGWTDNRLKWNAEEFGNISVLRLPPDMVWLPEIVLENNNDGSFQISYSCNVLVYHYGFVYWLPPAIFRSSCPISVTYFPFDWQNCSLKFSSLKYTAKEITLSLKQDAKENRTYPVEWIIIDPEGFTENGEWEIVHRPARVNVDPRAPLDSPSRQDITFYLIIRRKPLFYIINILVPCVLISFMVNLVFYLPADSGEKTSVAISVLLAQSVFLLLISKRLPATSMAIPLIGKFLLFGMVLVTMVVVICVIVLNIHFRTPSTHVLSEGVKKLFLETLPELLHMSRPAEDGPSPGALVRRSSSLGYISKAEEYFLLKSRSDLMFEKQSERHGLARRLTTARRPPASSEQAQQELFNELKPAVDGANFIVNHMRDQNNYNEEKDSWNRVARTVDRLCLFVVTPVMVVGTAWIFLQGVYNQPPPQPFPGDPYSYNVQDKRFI
Data processing: (1) Current values recorded for vehicle only applications in individual traps/patterns were subtracted from corresponding current amplitude values for control, test article and control+test article. (2) Control response was calculated as % of the average response of the 3rd out of total 3 ACh (10 mM) applications alone. In rare situations, if the 3rd ACh response was obscured due to technical artifacts, the 2nd and/or 1st ACh (10 mM) application was considered as control. The peak current amplitude generated in the presence of each test article concentration was then used to calculate the % inhibition as compared to control response (10 mM ACh alone). These estimates were further corrected for vehicle response and run down corrected by normalizing with time matched control responses (10 mM ACh alone). The corrected percentages were then fit with a non-linear function in GraphPad Prism 6 (or later versions) to determine the IC50.
Exclusion criteria: (i) any n's with poor recording quality, (ii) control current amplitude <500 pA or (iii) significant outliers, as determined by the Grubbs test.
ARMs compounds of Formula (I) of the invention were tested for antagonism of the nAChR in the above assay in […] experimental runs and the results are shown in Table 7 below. Antagonistic activity of the compounds of Formula (I) of the invention is reported as an IC50 value (half maximal inhibitory concentration) and the maximum percentage antagonism observed at the highest concentration of compound of Formula (I) tested, as indicated in Table 7. For compounds tested in more than one experimental run, the IC50 value is reported as an average
Background: Patch clamp records ionic current or voltage across a cell membrane.

Assay [2] relates to CCR2 expressing cells (CD11b+Ly6c+Hi) in peripheral blood. The assay is described as follows: In vivo depletion assay, flow cytometry of peripheral blood (Example 201). Further details: species or system human CCR2 knock-in mice (C57 background). Conditions: hCCR2 knock-in mice, IV 0.1 mpk compound + 10 mpk anti-cotinine antibody (SEQ ID NO: 13/14), peripheral blood at 48 hr. The method, boiled down:
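Mice dosed with compound formulated in saline/DMSO/PBS, with anti-cotinine antibody (rabbit variable region, mouse IgG2a Fc) where required, pre-incubated 30 min at room temperature. Terminal peripheral blood RBC-lysed, Fc-blocked, stained for CD45, CD3, CD11b, Ly6C, human CCR2 and 7AAD; percent depletion of CD11b+Ly6c+Hi cells determined by flow cytometry.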
In general terms: In flow cytometry, cells or beads pass a laser one at a time.

The subject of assay [3] is endogenous target monocytes in human PBMC. The assay is described as follows: PBMC ex vivo monocyte depletion flow cytometry assay (Example 200). The format is cell-based. The settings on record: with anti-cotinine antibody (SEQ ID NO: 11/12), 18-24 hours, EC50 in molar, read-out: Ex Vivo Depletion Assay pEC50 (converted). The method, boiled down: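 Monocyte depletion is reported as pEC50, averaged or given individually across runs, and read by flow cytometry staining CD45, CD14 and CD4 with a viability dye. Compounds, diluted four-fold over 11 points from 1 mM DMSO stocks, were combined with 30 μg/mL Fc-enhanced anti-cotinine antibody and human PBMC, then incubated 18-24 h at 37° C.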

In turn, `CC(C)N(C)[C@@H]1CC[C@H](N2CC[C@H](Nc3ncnc4ccc(C(F)(F)F)cc34)C2=O)[C@H](NC(=O)[C@H]2C[C@H](NC(=O)CCCO[C@H]3CC[C@H](OCCNC(=O)[C@H]4CC(=O)N(C)[C@@H]4c4cccnc4)CC3)C2)C1` [Example 8, (2S,3S)-N-(2-(((1R,4S)-4-(4-(((1R,3R)-3-(((1R,2S,5R)-5-(Isopropyl(methyl)amino)-2-((S)-2-oxo-3-((6-(trifluoromethyl)quinazolin-4-yl)amino)pyrrolidin-1-yl)cyclohexyl)carbamoyl)cyclobutyl)amino)-4-oxobutoxy)cyclohexyl)oxy)ethyl)-1-methyl-5-oxo-2-(pyridin-3-yl)pyrrolidine-3-carboxamide] gave an IC50 in assay [1] of 47.2 µM. The Emax at 100 µM in assay [1] (read-out: Maximum Response) is 73.1%. In assay [2], the “% Depletion of CCR2 expressing cells” value was 90.3%.
With `CC(C)N(C)[C@@H]1CC[C@H](N2CC[C@H](Nc3ncnc4ccc(C(F)(F)F)cc34)C2=O)[C@H](NC(=O)CCOCCN2CCC3(CCC(C(=O)NCCNC(=O)[C@H]4CC(=O)N(C)[C@@H]4c4cccnc4)CC3)CC2)C1` [Example 184, 3-(2-(3-(((1R,2S,5R)-5-(isopropyl(methyl)amino)-2-((S)-2-oxo-3-((6-(trifluoromethyl)quinazolin-4-yl)amino)450yridine450ne-1-yl)cyclohexyl)amino)-3-oxopropoxy)ethyl)-N-(2-((2S,3S)-1-methyl-5-oxo-2-(450yridine-3-yl)pyrrolidine-3-carboxamido)ethyl)-3-azaspiro[5.5]undecane-9-carboxamide, 3Formic acid salt], the half-inhibitory concentration (IC50) in assay [1] was 6.39 µM. The Emax at 10 µM in assay [1] (maximum percentage antagonism at maximum concentration tested 10 μM, read-out: Maximum Response) stood at 69.2%. Besides, in assay [2], the “% Depletion of CCR2 expressing cells” value is on record as 85.99%. Moreover, in assay [3], the EC50 was 0.000251 µM.
For `CC(C)N(C)[C@@H]1CC[C@H](N2CC[C@H](Nc3ncnc4ccc(C(F)(F)F)cc34)C2=O)[C@H](NC(=O)[C@H]2C[C@@H](NC(=O)CCOCCNC(=O)CCOCCNC(=O)[C@H]3CC(=O)N(C)[C@@H]3c3cccnc3)C2)C1` [Example 44, (2S,3S)-N-(2-(3-((2-(3-(((1S,3s)-3-(((1R,2S,5R)-5-(Isopropyl(methyl)amino)-2-((S)-2-oxo-3-((6-(trifluoromethyl)quinazolin-4-yl)amino)pyrrolidin-1-yl)cyclohexyl)carbamoyl)cyclobutyl)amino)-3-oxopropoxy)ethyl)amino)-3-oxopropoxy)ethyl)-1-methyl-5-oxo-2-(pyridin-3-yl)pyrrolidine-3-carboxamide], the concentration for half-maximal inhibition (IC50) in assay [1] is ≥ 100 µM. Also, the Emax at 100 µM in assay [1] (read-out: Maximum Response) came out at 51.5%. In assay [2], the “% Depletion of CCR2 expressing cells” value is given as 91%. For the same molecule, the EC50 in assay [3] is 0.000631 µM.
In turn, `CC(C)N(C)[C@@H]1CC[C@H](N2CC[C@H](Nc3ncnc4ccc(C(F)(F)F)cc34)C2=O)[C@H](NC(=O)CCOCCOCCO[C@H]2CC[C@H](OCCNC(=O)[C@H]3CC(=O)N(C)[C@@H]3c3cccnc3)CC2)C1` [Example 192, (2S,3S)-N-(2-(((1R,4S)-4-(2-(2-(3-(((1R,2S,5R)-5-(Isopropyl(methyl)amino)-2-((S)-2-oxo-3-((6-(trifluoromethyl)quinazolin-4-yl)amino)pyrrolidin-1-yl)cyclohexyl)amino)-3-oxopropoxy)ethoxy)ethoxy)cyclohexyl)oxy)ethyl)-1-methyl-5-oxo-2-(pyridin-3-yl)pyrrolidine-3-carboxamide] came in with an IC50 in assay [1] of 74.3 µM. Moreover, the Emax at 100 µM in assay [1] (read-out: Maximum Response) was determined as 53%. In addition, the “% Depletion of CCR2 expressing cells” value in assay [2] stood at 84.8%.

Broadly, the IC50 is the concentration that gives 50% inhibition. The low end stands for higher potency, the high end for lower potency.
